Numbers after ± are expanded uncertainties.
Experiments:
[1] = Molar enthalpy of transition or fusion; settings: Crystal; DSC
[2] = Crystal; DTA

SMILES	Molar enthalpy of transition or fusion [1] [kcal/mol]	Normal melting temperature [2] [°C]
CCCCCCCCCCCCCCCCOC(=O)/C=C\C(=O)O [maleic acid monohexadecyl ester]	17.1 ± 0.454	71.80 ± 3
CCCCCCCCCCCCOC(=O)/C=C\C(=O)O [maleic acid monododecyl ester]	12.4 ± 0.335	51.30 ± 4
CCCCCCCCCCCCOC(=O)CCC(=O)O [butanedioic acid, monododecyl ester]	12.7 ± 0.335	45.80 ± 2.1
CCCCCCCCCCCCCCCCCCCCCCOC(=O)/C=C\C(=O)O [maleic acid monodocosyl ester]	20.8 ± 0.55	82.00 ± 5

Next, values leading:

Molar enthalpy of transition or fusion [1] [kcal/mol]	Normal melting temperature [2] [°C]	SMILES
15.8 ± 0.43	64.20 ± 1.1	CCCCCCCCCCCCCCCCOC(=O)CCC(=O)O [succinic acid monohexadecyl ester]
9.99 ± 0.263	36.50 ± 1.1	CCCCCCCCOC(=O)CCC(=O)O [succinic acid monooctyl ester]
22.2 ± 0.574	73.60 ± 1.1	CCCCCCCCCCCCCCCCCCCCCCOC(=O)CCC(=O)O [succinic acid monodocosyl ester]
7.93 ± 0.215	31.10 ± 3	CCCCCCCCOC(=O)/C=C\C(=O)O [maleic acid monooctyl ester]
